IC50 and Ki data for 28 compounds are collected here from ChEMBL document CHEMBL1909046, “DrugMatrix in vitro pharmacology data”.

The target of assay [1] is Receptor tyrosine-protein kinase erbB-2 (Homo sapiens, UniProt P04626). Nature of the assay: biochemical. It counts as cell-based, Insect cells. The following applies: for IC50 / Ki: insect cells.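 For all read-outs here: inhibition of HER2 kinase enzyme activity, measured with Poly(Glu:Tyr) as the phosphorylation substrate; in other assays of this panel Not Active means under 50% inhibition at 10 µM.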
Assay [2] has as its target T1, 5-hydroxytryptamine receptor 1A (Rattus norvegicus, UniProt P19327). Note: in other assays of this panel Not Active means under 50% inhibition at 10 µM.
T1 sequence (P19327 whole entry): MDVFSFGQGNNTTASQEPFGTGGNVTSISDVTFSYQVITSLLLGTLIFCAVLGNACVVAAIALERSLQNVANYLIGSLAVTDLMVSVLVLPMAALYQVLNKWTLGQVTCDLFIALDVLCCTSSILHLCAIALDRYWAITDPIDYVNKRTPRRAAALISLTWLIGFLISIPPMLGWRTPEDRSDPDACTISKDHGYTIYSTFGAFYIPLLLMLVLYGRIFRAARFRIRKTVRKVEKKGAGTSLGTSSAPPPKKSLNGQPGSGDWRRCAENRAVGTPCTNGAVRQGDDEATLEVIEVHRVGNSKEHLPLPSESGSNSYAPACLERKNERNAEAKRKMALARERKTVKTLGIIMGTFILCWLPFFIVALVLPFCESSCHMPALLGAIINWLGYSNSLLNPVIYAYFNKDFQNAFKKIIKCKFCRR
In kind it is cell membranes, CHO-K1, Membrane. The following applies: for IC50 / Ki: cho-k1; for pIC50: read-out: IC50; for pKi: read-out: Ki.

For assay [3], the target named is Beta-3 adrenergic receptor (Homo sapiens, UniProt P13945). Nature of the assay: DRUGMATRIX: Adrenergic beta3 radioligand binding (ligand: [125I] Cyanopindolol). It counts as cell membranes, HEK293, Membrane. The following applies: Not Active = under 50% inhibition at 10 µM; for IC50 / Ki: hek293.
Sequence of Beta-3 adrenergic receptor (P13945 whole entry): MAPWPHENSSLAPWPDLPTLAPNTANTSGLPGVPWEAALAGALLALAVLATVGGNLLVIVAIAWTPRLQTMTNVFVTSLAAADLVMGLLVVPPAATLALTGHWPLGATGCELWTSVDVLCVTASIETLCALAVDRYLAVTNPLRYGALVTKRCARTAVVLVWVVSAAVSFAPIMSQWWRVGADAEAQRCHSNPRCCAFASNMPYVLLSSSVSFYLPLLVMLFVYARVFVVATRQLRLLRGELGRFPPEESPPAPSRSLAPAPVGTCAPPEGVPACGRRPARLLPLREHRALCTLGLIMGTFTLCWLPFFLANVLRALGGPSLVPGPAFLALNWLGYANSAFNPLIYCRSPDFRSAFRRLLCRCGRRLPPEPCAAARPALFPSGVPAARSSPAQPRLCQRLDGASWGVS
In the next assay the target is Acetylcholinesterase (Homo sapiens, UniProt P22303). Nature of the assay: DRUGMATRIX: Acetylcholinesterase enzyme inhibition (substrate: acetylthiocholine). In kind it is cell-based, HEK293. The following applies: Not Active = under 50% inhibition at 10 µM; for IC50 / Ki: hek293.
Sequence of Acetylcholinesterase (P22303 whole entry): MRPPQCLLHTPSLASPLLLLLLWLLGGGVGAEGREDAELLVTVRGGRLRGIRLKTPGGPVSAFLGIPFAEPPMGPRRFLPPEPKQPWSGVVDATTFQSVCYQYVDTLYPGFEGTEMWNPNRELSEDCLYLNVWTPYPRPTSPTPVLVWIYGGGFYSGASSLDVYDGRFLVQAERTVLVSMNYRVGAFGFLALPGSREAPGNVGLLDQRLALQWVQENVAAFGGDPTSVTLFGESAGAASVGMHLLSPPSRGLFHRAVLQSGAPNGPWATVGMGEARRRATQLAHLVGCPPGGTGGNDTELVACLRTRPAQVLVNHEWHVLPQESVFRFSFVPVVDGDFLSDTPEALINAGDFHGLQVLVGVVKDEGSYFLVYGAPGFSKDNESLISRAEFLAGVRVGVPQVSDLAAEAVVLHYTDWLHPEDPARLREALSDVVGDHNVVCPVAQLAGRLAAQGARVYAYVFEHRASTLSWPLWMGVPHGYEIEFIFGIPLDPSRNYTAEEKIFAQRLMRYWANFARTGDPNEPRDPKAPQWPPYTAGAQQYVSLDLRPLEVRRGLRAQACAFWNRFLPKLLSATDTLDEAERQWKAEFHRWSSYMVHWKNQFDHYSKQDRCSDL
Assay [4] deals with Aldo-keto reductase family 1 member B1 (Rattus norvegicus, UniProt P07943). Nature of the assay: biochemical. In kind it is tissue-based, Lens of camera-type eye. The following applies: for pIC50: read-out: IC50.

pIC50, pKi: −log10 of the molar value.

For the compound `CCCCC(=O)N(Cc1ccc(-c2ccccc2-c2nnn[nH]2)cc1)[C@H](C(=O)O)C(C)C`, the IC50 entry (in assay [1]; in assay [2]; in assay [3]; at Acetylcholinesterase; in assay [4]) was “Not Active” throughout.
For orientation: pIC50 means the negative decadic logarithm of the IC50, by convention in mol/L. Consider `O=C(O)COc1ccc(C(=O)c2cccs2)c(Cl)c1Cl`, for which the IC50 result (in assay [1]; in assay [2]; in assay [3]; against Acetylcholinesterase) was “Not Active” each time. Further, the pIC50 in assay [4] is 5.49.
Turning to `CN1[C@@H]2CC[C@H]1C[C@@H](OC(c1ccccc1)c1ccccc1)C2` [BENZTROPINE], the IC50 entry (in assay [1]; in assay [2]; in assay [3]; against Acetylcholinesterase; in assay [4]) was “Not Active” in each case.
As to `C[C@@](Cc1ccc(O)c(O)c1)(NN)C(=O)O.O` [CARBIDOPA], the IC50 entry (in assay [1]; in assay [2]; in assay [3]; against Acetylcholinesterase; in assay [4]) was “Not Active” each time.
Take `CN1CCN(C2=Nc3cc(Cl)ccc3Nc3ccccc32)CC1` [CLOZAPINE]: the IC50 result (in assay [1]; in assay [3]; at Acetylcholinesterase; in assay [4]) was “Not Active” each time.
With `CC(C)NC[C@@H](O)COc1cccc2ccccc12` [DEXPROPRANOLOL], the IC50 entry (in assay [1]; in assay [3]; against Acetylcholinesterase; in assay [4]) was “Not Active” in each case.
As to `CC(C)NC[C@H](O)COc1cccc2ccccc12` [LEVOPROPRANOLOL], the IC50 entry (in assay [1]; against Acetylcholinesterase; in assay [4]) was “Not Active” throughout.
Take `O=C(O)CCCCC1CCSS1` (stereo not drawn) [LIPOIC ACID, ALPHA]: the IC50 result (in assay [1]; in assay [2]; in assay [3]; at Acetylcholinesterase; in assay [4]) was “Not Active” each time.
`CN(C)C(=O)C(CCN1CCC(O)(c2ccc(Cl)cc2)CC1)(c1ccccc1)c1ccccc1` [LOPERAMIDE]: the IC50 result (in assay [1]; in assay [2]; on Acetylcholinesterase; in assay [4]) was “Not Active” in each case.
Usually pKi stands for the Ki on a negative log10 scale, so that one unit is a factor of ten. As to `Clc1ccc(COC(Cn2ccnc2)c2ccc(Cl)cc2Cl)c(Cl)c1` (stereo not given) [MICONAZOLE], the pIC50 in assay [1] (read-out: IC50) is 4.56; in assay [2], 4.94; in assay [3] (read-out: IC50), 5.26; at Acetylcholinesterase (read-out: IC50), 4.73. Moreover, the pKi in assay [2] is 5.18; in assay [3] (read-out: Ki), 5.39. Moreover, in assay [4], the IC50 entry is “Not Active”.
On to `Oc1ccc2c3c1O[C@H]1[C@@H](O)CC[C@@]4(O)[C@@H](C2)N(CC2CCC2)CC[C@]314` [NALBUPHINE], for which the IC50 result (in assay [1]; in assay [2]; in assay [3]; against Acetylcholinesterase; in assay [4]) was “Not Active” in each case.
As to `C[C@]12C=CC(=O)C=C1CC[C@@H]1[C@@H]2C(=O)C[C@@]2(C)[C@H]1CC[C@]2(O)C(=O)CO` [PREDNISONE], the IC50 entry (in assay [1]; in assay [2]; in assay [3]; against Acetylcholinesterase; in assay [4]) was “Not Active” throughout.
Regarding `OCCOCCN1CCN(C2=Nc3ccccc3Sc3ccccc32)CC1` [QUETIAPINE], the IC50 entry (in assay [1]; in assay [3]; against Acetylcholinesterase; in assay [4]) was “Not Active” each time.
In the case of `COC(=O)[C@H]1[C@H]2C[C@@H]3c4[nH]c5cc(OC)ccc5c4CCN3C[C@H]2C[C@@H](OC(=O)c2cc(OC)c(OC)c(OC)c2)[C@@H]1OC` [RESERPINE], the IC50 entry (in assay [1]; in assay [2]; in assay [3]; against Acetylcholinesterase; in assay [4]) was “Not Active” in each case.
With `O=C(O)c1ccccc1O` [SALICYLIC ACID], the IC50 entry (in assay [1]; in assay [2]; in assay [3]; against Acetylcholinesterase; in assay [4]) was “Not Active” each time.
On to `C[S+]([O-])c1ccc(-c2nc(-c3ccncc3)c(-c3ccc(F)cc3)[nH]2)cc1` (stereo not given) [SB-203580], for which the IC50 result (in assay [2]; in assay [3]; on Acetylcholinesterase; in assay [4]) was “Not Active” throughout.
In the case of `CC1CCC(NC(=O)N(CCCl)N=O)CC1` (stereo not given) [SEMUSTINE], the IC50 result (in assay [1]; in assay [2]; in assay [3]; on Acetylcholinesterase; in assay [4]) was “Not Active” throughout.
Consider `O=C1C[C@@H]2OCC=C3CN4CC[C@]56c7ccccc7N1[C@H]5[C@H]2[C@H]3C[C@H]46` [STRYCHNINE], for which the IC50 entry (in assay [1]; in assay [2]; in assay [3]; against Acetylcholinesterase; in assay [4]) was “Not Active” throughout.
As to `C[N+](C)(C)CCOC(=O)CCC(=O)OCC[N+](C)(C)C.[Cl-].[Cl-]` [SUCCINYLCHOLINE CHLORIDE], the IC50 entry (in assay [1]; in assay [2]; in assay [3]; on Acetylcholinesterase; in assay [4]) was “Not Active” in each case.
As for `Nc1ccc(S(=O)(=O)NC(=O)c2ccccc2)cc1` [SULFABENZAMIDE], the IC50 result (in assay [1]; in assay [2]; in assay [3]; against Acetylcholinesterase; in assay [4]) was “Not Active” in each case.
`CCCCCCCCNC(C)C(O)c1ccc(SC(C)C)cc1` (stereo not given) [SULOCTIDIL]: the IC50 result (in assay [1]; against Acetylcholinesterase; in assay [4]) was “Not Active” each time. Moreover, the pIC50 in assay [2] was 6.26. Moreover, the pKi in assay [2] was 6.51.
As for `O=c1[nH]c(=O)n(C2CCCO2)cc1F` (stereo not given) [TEGAFUR], the IC50 entry (in assay [1]; in assay [2]; in assay [3]; against Acetylcholinesterase; in assay [4]) was “Not Active” throughout.
Consider `CC(=N)S` [THIOACETAMIDE], for which the IC50 result (in assay [1]; in assay [2]; in assay [3]; against Acetylcholinesterase; in assay [4]) was “Not Active” throughout.
For the compound `Cc1ccc(C(=O)c2ccc(CC(=O)O)n2C)cc1` [TOLMETIN], the IC50 result (in assay [1]; in assay [2]; in assay [3]; against Acetylcholinesterase) was “Not Active” in each case. The pIC50 in assay [4] is 5.67.
Consider `CC(=O)OCC(COC(C)=O)OC(C)=O` [TRIACETIN], for which the IC50 result (in assay [1]; in assay [2]; in assay [3]; on Acetylcholinesterase; in assay [4]) was “Not Active” each time.
Turning to `CN1CCN(CCCN2c3ccccc3Sc3ccc(C(F)(F)F)cc32)CC1` [TRIFLUOPERAZINE], the IC50 result (in assay [1]; in assay [2]; in assay [3]; against Acetylcholinesterase; in assay [4]) was “Not Active” throughout.
Take TRANSPLATIN: the IC50 result (in assay [1]; in assay [2]; in assay [3]; at Acetylcholinesterase; in assay [4]) was “Not Active” each time. For the same compound, the Ki entry (in assay [1]; in assay [2]; in assay [3]; at Acetylcholinesterase; in assay [4]) was “Not Active” throughout.
Regarding ZIRCONIUM(IV) CHLORIDE, the IC50 result (in assay [1]; in assay [2]; in assay [3]; against Acetylcholinesterase; in assay [4]) was “Not Active” each time. Also, the Ki entry (in assay [1]; in assay [2]; in assay [3]; at Acetylcholinesterase; in assay [4]) was “Not Active” each time.
